Data reported in BindingDB's records for doi:10.1016/j.bmc.2009.11.019 (Istituto Di Ricerche Chimiche E Biochimiche G. Ronzoni, 2010).

Test: Inhibition of integrin alphaV receptor-mediated adhesion of human PC3 cells to vitronectin after 1 hr by toluidine blue staining

SMILES	IC50 [µM]
NC(N)=NCCC[C@@H]1NC(=O)C(c2ccc(CNC(=O)COCCOCCOCC(=O)O)cc2)NC(=O)[C@@H](Cc2ccccc2)NC(=O)[C@H](CC(=O)O)NC(=O)CNC1=O (stereo partly drawn) [1-(4-((5S,11S,14R)-14-benzyl-11-(carboxymethyl)-5-(3-guanidinopropyl)-3,6,9,12,15-pentaoxo-1,4,7,10,13-pentaazacyclopentadecan-2-yl)phenyl)-3-oxo-5,8,11-trioxa-2-azatridecan-13-oic acid]	18.8
NNC(=O)COCCOCCOCC(=O)NCc1ccc([C@@H]2NC(=O)[C@@H](Cc3ccccc3)NC(=O)[C@H](CC(=O)O)NC(=O)CNC(=O)[C@H](CCCN=C(N)N)NC2=O)cc1 [2-((2S,5R,8S,11S)-5-benzyl-11-(3-guanidinopropyl)-8-(4-(13-hydrazinyl-3,13-dioxo-5,8,11-trioxa-2-azatridecyl)phenyl)-3,6,9,12,15-pentaoxo-1,4,7,10,13-pentaazacyclopentadecan-2-yl)acetic acid]	15.6
CC[C@@]1(O)C(=O)OCc2c1cc1n(c2=O)Cc2c-1nc1ccccc1c2CCC=NNC(=O)COCCOCCOCC(=O)NCc1ccc(C[C@@H]2NC(=O)[C@@H](Cc3ccccc3)NC(=O)[C@H](CC(=O)O)NC(=O)CNC(=O)[C@H](CCCN=C(N)N)NC2=O)cc1 [2-[(2S,5R,8S,11S)-5-benzyl-11-(3-carbamimidamidopropyl)-8-({4-[(2-{2-[2-({N'-[(1E)-3-[(19S)-19-ethyl-19-hydroxy-14,18-dioxo-17-oxa-3,13-diazapentacyclo[11.8.0.0^{2,11}.0^{4,9}.0^{15,20}]henicosa-1(21),2,4,6,8,10,15(20)-heptaen-10-yl]propylidene]hydrazinecarbonyl}methoxy)ethoxy]ethoxy}acetamido)methyl]phenyl}methyl)-3,6,9,12,15-pentaoxo-1,4,7,10,13-pentaazacyclopentadecan-2-yl]acetic acid]	11
CC[C@@]1(O)C(=O)OCc2c1cc1n(c2=O)Cc2c-1nc1ccccc1c2C=NNC(=O)COCCOCCOCC(=O)NCc1ccc(C[C@@H]2NC(=O)[C@@H](Cc3ccccc3)NC(=O)[C@H](CC(=O)O)NC(=O)CNC(=O)[C@H](CCCN=C(N)N)NC2=O)cc1 [2-[(2S,5R,8S,11S)-5-benzyl-11-(3-carbamimidamidopropyl)-8-({4-[(2-{2-[2-({N'-[(1E)-[(19S)-19-ethyl-19-hydroxy-14,18-dioxo-17-oxa-3,13-diazapentacyclo[11.8.0.0^{2,11}.0^{4,9}.0^{15,20}]henicosa-1(21),2,4,6,8,10,15(20)-heptaen-10-yl]methylidene]hydrazinecarbonyl}methoxy)ethoxy]ethoxy}acetamido)methyl]phenyl}methyl)-3,6,9,12,15-pentaoxo-1,4,7,10,13-pentaazacyclopentadecan-2-yl]acetic acid]	4.8
CC[C@@]1(O)C(=O)OCc2c1cc1n(c2=O)Cc2c-1nc1ccccc1c2/C=N\OCCNC(=O)CCC[C@@H]1NC(=O)[C@@H](Cc2ccccc2)NC(=O)[C@H](CC(=O)O)NC(=O)CNC(=O)[C@H](CCCN=C(N)N)NC1=O [2-[(2S,5R,8S,11S)-5-benzyl-11-(3-carbamimidamidopropyl)-8-{3-[(2-{[(Z)-{[(19S)-19-ethyl-19-hydroxy-14,18-dioxo-17-oxa-3,13-diazapentacyclo[11.8.0.0^{2,11}.0^{4,9}.0^{15,20}]henicosa-1(21),2,4,6,8,10,15(20)-heptaen-10-yl]methylidene}amino]oxy}ethyl)carbamoyl]propyl}-3,6,9,12,15-pentaoxo-1,4,7,10,13-pentaazacyclopentadecan-2-yl]acetic acid]	5.8
CC[C@@]1(O)C(=O)OCc2c1cc1n(c2=O)Cc2c-1nc1ccccc1c2/C=N/OCCNC(=O)COCCOCCOCC(=O)NCc1ccc(C[C@@H]2NC(=O)[C@@H](Cc3ccccc3)NC(=O)[C@H](CC(=O)O)NC(=O)CNC(=O)[C@H](CCCN=C(N)N)NC2=O)cc1 [2-[(2S,5R,8S,11S)-5-benzyl-11-(3-carbamimidamidopropyl)-8-{[4-({2-[2-(2-{[(2-{[(E)-{[(19S)-19-ethyl-19-hydroxy-14,18-dioxo-17-oxa-3,13-diazapentacyclo[11.8.0.0^{2,11}.0^{4,9}.0^{15,20}]henicosa-1(21),2,4,6,8,10,15(20)-heptaen-10-yl]methylidene}amino]oxy}ethyl)carbamoyl]methoxy}ethoxy)ethoxy]acetamido}methyl)phenyl]methyl}-3,6,9,12,15-pentaoxo-1,4,7,10,13-pentaazacyclopentadecan-2-yl]acetic acid]	8.3
CC[C@@]1(O)C(=O)OCc2c1cc1n(c2=O)Cc2c-1nc1ccccc1c2/C=N/OCCNC(=O)CCC(=O)NCc1ccc(C[C@@H]2NC(=O)[C@@H](Cc3ccccc3)NC(=O)[C@H](CC(=O)O)NC(=O)CNC(=O)[C@H](CCCN=C(N)N)NC2=O)cc1 [2-[(2S,5R,8S,11S)-5-benzyl-11-(3-carbamimidamidopropyl)-8-{[4-({3-[(2-{[(E)-{[(19S)-19-ethyl-19-hydroxy-14,18-dioxo-17-oxa-3,13-diazapentacyclo[11.8.0.0^{2,11}.0^{4,9}.0^{15,20}]henicosa-1(21),2,4,6,8,10,15(20)-heptaen-10-yl]methylidene}amino]oxy}ethyl)carbamoyl]propanamido}methyl)phenyl]methyl}-3,6,9,12,15-pentaoxo-1,4,7,10,13-pentaazacyclopentadecan-2-yl]acetic acid]	> 100
